These results are taken from publication PMC8998618, “A Pharmacokinetic and Metabolism Study of the TRPC6 Inhibitor SH045 in Mice by LC-MS/MS” (International Journal of Molecular Sciences, 2022).

SMILES strings stand for the structures.

As usually defined, the IC50 is the concentration that gives 50% inhibition. Usually Km stands for the concentration of substrate that gives half-maximal velocity.

The subject of data set [1] is TRPC6. Also on record: method as in PMID 29522264. The settings on record: in vitro; cited from earlier work.
The nature of data set [2]: NADPH-dependent microsomal conversion, Michaelis-Menten kinetics (MLM). The format is in vitro ADME, mouse. Conditions: MLM 0.5 mg/mL protein, SH045 0.5 to 100 µM, Lineweaver-Burk. The method, then: For determination of vmax and Michaelis-Menten constant Km of the NADPH-dependent microsomal depletion of SH045, incubations in MLM and HLM were performed. Testosterone instead of SH045 was used as positive control (Supplementary Materials SM6).
Negative controls were obtained by omission of respective components. The overall velocity (v) of degradation was calculated from altered SH045 concentration (∆c) obtained from reduction peak area ratio of SH045 as: v = ∆c/incubation time × concentration of enzyme (nmol/min × mg). Mean maximum rate vmax and Km were calculated using Lineweaver-Burk transformation. […]
The tissue binding of SH045 was analyzed exemplarily in lung, liver and kidney homogenate using ultrafiltration [5]. […] 20 µL of the mixture and the filtrate were analyzed for SH045. […]
Testosterone (10 µM in ACN/DPBS 2/3, v/v) instead of SH045 was used as positive control and analyzed by an appropriate HPLC method with UV detection.
Negative controls contained either no NADPH, no MLM or HLM or none of them. The overall velocity (v) of degradation was calculated from altered SH045 concentration (∆c) obtained from reduction peak area ratio of SH045 as: v = ∆c / incubation time × concentration of enzyme × volume (nmol/ min × mg). Mean maximum rate vmax and Michaelis-Menten constant Km were calculated using Lineweaver-Burk transformation. […]

For the compound `C=C[C@@](C)(O)CC[C@H]1C(=C)C[C@H](OC(=O)NC)[C@H]2C(C)(C)CCC[C@]12C` [SH045, (1S,4S,4aR,8aS)-4-((S)-3-Hydroxy-3-methylpent-4-en-1-yl)-4a,8,8-trimethyl-3-methylenedecahydronaphthalen-1-yl methylcarbamate], in data set [1], the IC50 is 5.8 nM. The vmax in data set [2] was determined as 9.8 ± 0.8 nmol/min/mg. In data set [2] (mouse, mouse liver microsomes), the Km at 10 min is 48.4 ± 3.9 µM.
